# Test results from patent US20190048054A1, “Mesenchymal Stem Cells Expressing Biomarkers that Predict the Effectiveness of Mesenchymal Stem Cells for Treating Diseases and Disorders” (priority 2014, published 2019).
# What was measured:
# hMSCs = assay: Cell viability of hMSCs after estradiol treatment (photographs); format: cell-based, human; details: estradiol treatment for 4 days (FIG. 2C)
# [1] = test system: animal models for human diseases; details: administration of recombinant TSG-6; cited from earlier work
compound,measurement,setting,value
C[C@]12CC[C@@H]3c4ccc(O)cc4CC[C@H]3[C@@H]1CC[C@@H]2O [estradiol],cell viability,hMSCs,without affecting cell viability
"recombinant TSG-6: naturally occurring anti-inflammatory protein of 35 kDa, SEQ ID NO: 1; given as recombinant protein",beneficial effects compared with hMSCs,[1],reproduced most of the beneficial effects of the hMSCs
